Laboratory results reported in paper PMC7966987, “Insights into the catalytic properties of the mitochondrial rhomboid protease PARL” (The Journal of Biological Chemistry, 2021).

Key:
Assay type in all cases: biochemical
PARLΔ77 = target: T1, PARLΔ77 (Homo sapiens, UniProt Q9H300); assay: IQ-peptide substrate cleavage kinetics, PARLΔ77 in proteoliposomes; settings: PARLΔ77 in PLs (E. coli polar lipids), 50 mM Tris-HCl pH 7.0, 150 mM NaCl, 10% glycerol, no DDM, 37 °C, mean ± SEM
T1 construct: GFP-hexahistidine (behind a TEV cleavage site) (C, cleaved yes); made in house; host or cells: Pichia pastoris
T1 sequence (Q9H300 78-379): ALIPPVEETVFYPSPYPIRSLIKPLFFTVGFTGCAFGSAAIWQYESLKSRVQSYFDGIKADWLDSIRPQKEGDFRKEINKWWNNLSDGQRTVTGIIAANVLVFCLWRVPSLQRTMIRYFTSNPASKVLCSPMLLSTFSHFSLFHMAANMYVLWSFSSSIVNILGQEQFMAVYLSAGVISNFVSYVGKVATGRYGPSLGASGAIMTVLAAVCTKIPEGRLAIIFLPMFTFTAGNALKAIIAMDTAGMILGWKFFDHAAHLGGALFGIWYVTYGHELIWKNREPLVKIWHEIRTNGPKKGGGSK

human PARLΔ55 [1] = target: T2, human PARLΔ55 (Homo sapiens, UniProt Q9H300); assay: IQ-peptide substrate cleavage kinetics, PARLΔ55 in proteoliposomes; settings: PARLΔ55 in PLs (E. coli polar lipids), 50 mM Tris-HCl pH 7.0, 150 mM NaCl, 10% glycerol, no DDM, 37 °C; mean ± SEM
T2 construct: to generate full-length (FL) starting at residue 55 or the β-cleavage form truncated at residue 77; GFP-hexahistidine (behind a TEV cleavage site) (C, cleaved yes); made in house; host or cells: Pichia pastoris
T2 sequence (Q9H300 56-379): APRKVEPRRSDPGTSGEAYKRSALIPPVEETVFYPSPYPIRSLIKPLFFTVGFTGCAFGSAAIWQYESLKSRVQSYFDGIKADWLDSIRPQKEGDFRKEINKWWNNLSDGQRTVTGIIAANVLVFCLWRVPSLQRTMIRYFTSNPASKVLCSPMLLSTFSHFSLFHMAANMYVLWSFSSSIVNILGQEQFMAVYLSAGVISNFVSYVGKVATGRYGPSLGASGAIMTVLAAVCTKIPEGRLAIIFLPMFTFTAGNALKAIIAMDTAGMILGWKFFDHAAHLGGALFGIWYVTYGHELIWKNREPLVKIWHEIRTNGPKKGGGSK
Source text: To assess the activity of recombinant PARL toward known substrates in a lipid bilayer, full-length and β-truncated PARL were reconstituted in proteoliposomes (PLs) using Escherichia coli lipids that closely resemble the composition of the IMM ([31]). We determined that the EDANS/Dabcyl - FRET tags prevented incorporation of the substrates into PL; however, the substrate could still be cleaved since the active site is proposed to be near the lipid/water interface ([40], [41]) analogous to bacterial rhomboid proteases (Fig. 1). To calculate the specific activity of the protease, we quantified the fraction of PARL in the PLs with an outward facing active site using a membrane […] activity-based TAMRA-labeled fluorophosphonate probe ([42]). […] These values were used to calculate specific activity of the PARL protease. Next, we compared cleavage of three IQ-peptide substrates by reconstituted full-length mature PARLΔ55 and the β-truncated form, PARLΔ77 (Fig. 3, Tables S5 and S6).
(§1) Assays with FRET-PINK1^70–134 were conducted as previously described ([26]). For EDANS/Dabcyl 10-mer IQ peptides (PINK1, PGAM5, Smac/Diablo), lyophilized peptides were initially dissolved in DMSO to obtain a stock solution. The IQ peptide substrates in a concentration range of 0.1–70 μM were incubated with activity assay buffer (50 mM Tris-HCl pH 7.0, 150 mM NaCl, 10% glycerol, 0.1% DDM) in a 384-well black-bottomed plate at 37 °C for 30 min in a multiwell plate reader (SynergyMx, BioTek). For all concentrations of IQ peptide, the DMSO was kept constant at 5%. Following preincubation, PARL was added to a final concentration of 0.8 μM to initiate the cleavage reaction. Fluorescence readings were taken every 3 min over a 3 h time course at ƛex = 336 nm and ƛem = 490 nm. The initial velocity was determined from the fluorescence readings over the time course. For each substrate concentration, a no-enzyme control was subtracted to eliminate background fluorescence changes not related to substrate cleavage. Relative fluorescence units were converted to concentration (μM) by determining the maximum change in fluorescence observed for each substrate concentration when fully digested. GraphPad Prism software was used for Michaelis–Menten analysis of kinetic curves. All kinetic data were obtained using at least three biological replicates (different enzyme preparations) with technical duplicates for each experiment. For kinetic measurements in detergent with all three substrates, the activity assays were repeated at least five times. In addition, after each protease purification, the quality control of purified PARL was controlled by measuring its enzymatic activity. Minimum of three experimental replicates with two technical replicates were used for data analysis.
E. coli polar lipids (Avanti), 400 μg in chloroform, were dried under nitrogen stream in a glass tube to yield a thin film of lipid. The tube was incubated overnight in a desiccator to completely remove all traces of solvent. In total, 50 μl of water and DDM detergent was added to the lipid film for resuspension at room temperature for 10 min, followed by the addition of purified PARL (400 μg) in 50 mM Tris-HCl, pH 8.0, 150 mM NaCl, 20% glycerol, 0.1% DDM, to yield the final weight ratio of 1 PARL:1 lipid:2 detergent. The detergent was slowly removed by the addition of SM2 Biobeads (Bio-Rad) while stirring on ice for 6 h to allow for the generation of proteoliposomes (PL); the process was controlled by the regimen of Biobead addition. To purify the PL, 50%:20% sucrose density gradient ultracentrifugation was used. A TAMRA probe (ThermoFisher) was used to determine the orientation of reconstituted PARL, which specifically and covalently labels serine residues of an enzymatically active serine protease. In total, 2 μM of TAMRA probe was added to PL samples and incubated for 1 h, allowing the TAMRA probe to label only the outward-facing accessible active sites. […]

human PARLΔ55 [2] = target: T2, human PARLΔ55; assay: IQ-peptide substrate cleavage kinetics, full-length PARLΔ55 in detergent; settings: for Km / kcat (turnover rate) / kcat/KM (catalytic efficiency): PARLΔ55 0.8 μM in 0.1% DDM with CL, 50 mM Tris-HCl pH 7.0, 150 mM NaCl, 10% glycerol, 5% DMSO, 37 °C, fluorescence, mean ± SEM
Source text: To further evaluate the cleavage of other known substrates of PARL, we adopted a more facile system to examine cleavage of multiple substrates and generated internally quenched (IQ) peptide substrates ([25], [36], [37], [38]) based on the amino acids flanking the PARL cleavage sites of PINK1 ([39]), PGAM5 ([8]), and Smac/Diablo ([11]). […] The assay allowed us to determine the catalytic parameters for the three primary PARL substrates and examine the substrate specificity (Fig. 2, Tables S2–S4).
as §1

| Substance | Km (PARLΔ77) | kcat (turnover rate) (PARLΔ77) | kcat/KM (catalytic efficiency) (PARLΔ77) | Km (human PARLΔ55 [1]) | kcat (turnover rate) (human PARLΔ55 [1]) | kcat/KM (catalytic efficiency) (human PARLΔ55 [1]) | substrate turnover with PARLΔ55 compared with PARLΔ77 (human PARLΔ55 [2]) | Km (human PARLΔ55 [2]) | kcat (turnover rate) (human PARLΔ55 [2]) | kcat/KM (catalytic efficiency) (human PARLΔ55 [2]) | kcat/KM (catalytic efficiency) (PARLΔ77; listed as PGAM5) | kcat/KM (catalytic efficiency) (PARLΔ77; listed as PGAM520-29) | kcat (turnover rate) (PARLΔ77; listed as Smac/Diablo) | kcat (turnover rate) (PARLΔ77; listed as Smac/Diablo51-60) |
| --- | --- | --- | --- | --- | --- | --- | --- | --- | --- | --- | --- | --- | --- | --- |
| (DABCYL)-AVFLAFGLGL-Glu(EDANS) [IQ-PINK1^99–108, internally quenched DABCYL/EDANS peptide substrate based on PINK1 PARL cleavage site] | 8 ± 1 µM | 0.00778 ± 0.00056 s⁻¹ | 972 ± 170 M⁻¹ s⁻¹ | 13 ± 2 µM | 0.0025 ± 0.00017 s⁻¹ | 190 ± 28 M⁻¹ s⁻¹ | significantly lower substrate turnover | 1.9 ± 0.4 µM | 0.000117 ± 8.3e-06 s⁻¹ | 61.1 ± 22 M⁻¹ s⁻¹ | – | – | – | – |
| (DABCYL)-AVFLSAVAVG-Glu(EDANS) [IQ-PGAM5^20–29, internally quenched DABCYL/EDANS peptide substrate based on PGAM5 PARL cleavage site] | 0.8 ± 0.2 µM | 0.00583 ± 0.00028 s⁻¹ | – | 1.3 ± 0.2 µM | 0.00133 ± 0.000333 s⁻¹ | 1000 ± 170 M⁻¹ s⁻¹ | significantly lower substrate turnover | 0.47 ± 0.07 µM | 0.000128 ± 5.6e-06 s⁻¹ | 278 ± 83 M⁻¹ s⁻¹ | 7220 ± 2200 M⁻¹ s⁻¹ | 7220 ± 2200 M⁻¹ s⁻¹ | – | – |
| (DABCYL)-GVT LCAVPIA-Glu(EDANS) [IQ-Smac/Diablo^51–60, internally quenched DABCYL/EDANS peptide substrate based on Smac/Diablo PARL cleavage site] | 17 ± 4 µM | – | 944 ± 280 M⁻¹ s⁻¹ | 3.9 ± 0.7 µM | 0.00153 ± 8.3e-05 s⁻¹ | 389 ± 83 M⁻¹ s⁻¹ | – | 6 ± 1 µM | 0.000361 ± 2.8e-05 s⁻¹ | 83 ± 28 M⁻¹ s⁻¹ | – | – | 0.0161 ± 0.0019 s⁻¹ | 0.0161 ± 0.0019 s⁻¹ |
